# Results published in paper PMC3994669 (Cancer cell, 2014).
# Where two headings read alike, the source gives them in different places. *1 amine or outer side, *2 acyl side, *3 side chain or, on linkers, in order; H or OH if unused. Where a SMILES comes first, the peptide text is derived from it. Bridges are numbered along the chain shown (N, C = ends). Roman numbers before positions name the chains, in order. [ ]: non-standard residue; d: D form. Actinocin(9to1) = Cc1c2oc3c(C)ccc(C(=O)[*:1])c3nc-2c(C(=O)[*:2])c(N)c1=O; NMeV = CN[C@H](C(=O)O)C(C)C; Sar = CNCC(=O)O
# Columns and labels:
# [1] = test system: BJ; test: Dose-response proliferation assay on BJ control fibroblasts; type: cell-based; settings: Homo sapiens, read-out: EC50 BJ
# [2] = test system: HepG2; test: Dose-response proliferation assay on HepG2 control cells; type: cell-based; settings: Homo sapiens, HepG2, read-out: EC50 HepG2
# [3] = test system: Myc1 mouse G3 MB neurospheres; test: Dose-response proliferation assay; type: cell-based; settings: for EC50: Mus musculus, 72 h, read-out: EC50 Myc1
# [4] = test system: Trp53-null neurospheres; test: Dose-response proliferation assay on control Trp53-null neurospheres; type: cell-based, mouse; settings: for EC50: Mus musculus, 72 h, read-out: EC50 Trp53-null
# [5] = test system: Myc1 mouse G3 MB; test: Survival of mice with cortical Myc1 G3 MB implants; type: in vivo
# [6] = test system: human neural stem cells H9; test: Cell viability of human neural stem cells H9; type: cell-based; settings: H9, 72 h, read-out: EC50 H9 cells
# [7] = test system: SHH MB-derived line; test: Dose-response on SHH MB-derived line; type: cell-based, mouse
# [8] = test system: four additional mouse G3 MB lines; test: Dose-response on four additional mouse G3 MB lines; type: cell-based; settings: four independently derived mouse G3 MB lines
# [9] = test system: OA-2012-1 G3 MB PDX neurospheres; test: Cell viability of G3 MB PDX OA-2012-1 neurospheres; type: cell-based; settings: Homo sapiens, 72 h, read-out: EC50 OA-2012-1
# [10] = test system: Myc1 neurospheres; test: In vitro wash-out experiments on Myc1; type: cell-based; settings: Mus musculus
# [11] = test system: mouse G3 MB tumor cells; test: Cell death; type: cell-based; settings: for cell death by Annexin V staining: tumor cells in vitro
# [12] = type: in vivo; settings: murine plasma, single IV injection pemetrexed 200 mg/kg, gemcitabine 60 mg/kg
# [13] = mouse, in vivo
# [14] = test system: Myc2 mouse G3 MB; test: Survival of mice with Myc2 G3 MB implants; settings: treatment at days 4 and 11; vehicle 11 days
# [15] = test system: TB-12-5950 G3 MB PDX neurospheres; test: Cell viability of G3 MB PDX TB-12-5950 neurospheres; type: cell-based; settings: Homo sapiens, 72 h, read-out: EC50 TB-12-5950
# [16] = test system: H3K27me3; test: H3K27me3 immunoblotting of Myc1 cell lysates; type: cell-based, mouse; settings: Myc1, 72 hr; 0.5 μM decitabine, 40 nM pemetrexed
# [17] = read-out: EC50 wash-out, 1 hr drug exposure, read 72 hr after
# [18] = read-out: EC50 wash-out, 10 hr drug exposure, read 72 hr after
# [19] = read-out: EC50 wash-out, 24 hr drug exposure, read 72 hr after
Structure (SMILES),EC50 [2] [nM],EC50 [3] [nM],EC50 [4] [nM],also measured
CCC(C)(C)C(=O)O[C@H]1C[C@@H](C)C=C2C=C[C@H](C)[C@H](CC[C@@H]3C[C@@H](O)CC(=O)O3)[C@H]21 [Simvastatin],9400,3000,,EC50 [1]: 5800 nM
CC[C@H](C)C(=O)O[C@H]1C[C@@H](C)C=C2C=C[C@H](C)[C@H](CC[C@@H]3C[C@@H](O)CC(=O)O3)[C@H]21 [Lovastatin],13000,4000,2100,
CC[C@]1(O)C[C@@H]2CN(CCc3c([nH]c4ccccc34)[C@@](C(=O)OC)(c3cc4c(cc3OC)N(C)[C@H]3[C@@](O)(C(=O)OC)[C@H](OC(C)=O)[C@]5(CC)C=CCN6CC[C@]43[C@@H]65)C2)C1 [Vinblastine],,12,15,
N=c1ccn2c(n1)O[C@H]1[C@H](O)[C@@H](CO)O[C@H]12 [Ancitabine],,31,550,
Nc1nc(Cl)nc2c1ncn2[C@@H]1O[C@H](CO)[C@@H](O)[C@@H]1F [Clofarabine],,150,340,
COC(=O)Nc1nc2ccc(C(=O)c3cccs3)cc2[nH]1 [Nocodazole],15,110,94,
Nc1ccn([C@@H]2O[C@H](CO)[C@@H](O)C2(F)F)c(=O)n1 [Gemcitabine],,2.1,0.32,"increase in median survival ([5]; two doses of gemcitabine 60 mg/kg at days 2 and 9, vs vehicle): 11 days; EC50 [6]: 1.5 nM; fold less sensitive compared to Myc1 [7]: greater than 5 fold; potency and efficacy compared to Myc1 [8]: comparable potency and efficacy; EC50 [9]: 11 nM; EC50 [10, 17]: 44 nM; EC50 [10, 18]: 13 nM; EC50 [10, 19]: 3.8 nM; efficacy against Trp53-null ([4]; 72 hr treatment): ≤ 63%; histone 2AX (H2AX) foci ([11]; 1 hr treatment at 5 nM): induced histone 2AX (H2AX) foci; cell death by Annexin V staining [11]: induced cell death; efficacy against Myc1 ([3]; 72 hr treatment): 100%; clearance relative to previously published reports [12]: around 2 fold; tolerability [13]: well tolerated; median survival [14]: 26 days; EC50 [15]: 5.1 nM"
CC(C)C[C@H](NC(=O)[C@H](Cc1ccccc1)NC(=O)c1cnccn1)B(O)O [Bortezomib],26,6.3,2.7,EC50 [1]: 23 nM
O=C(O)C[C@H](O)C[C@H](O)/C=C/c1c(C2CC2)nc2ccccc2c1-c1ccc(F)cc1 [Pitavastatin],5000,3500,,
O=c1[nH]c(=O)n([C@H]2C[C@H](O)[C@@H](CO)O2)cc1C(F)(F)F [Trifluridine],,38,2.9,
Nc1nc2[nH]cc(CCc3ccc(C(=O)N[C@@H](CCC(=O)O)C(=O)O)cc3)c2c(=O)[nH]1 [Pemetrexed],,35,15000,"increase in median survival ([5]; one dose of pemetrexed 200 mg/kg at day 3, vs vehicle): 3 days; increase in median survival ([5]; two doses of pemetrexed 200 mg/kg at days 3 and 10, vs vehicle): 7 days; H3K27me3 levels [16]: no effect; EC50 [6]: 290 nM; sensitivity compared to Myc1 [7]: as sensitive to pemetrexed as Myc1; potency and efficacy compared to Myc1 [8]: comparable potency and efficacy; EC50 [9]: 100 nM; EC50 [10, 17]: 1200 nM; EC50 [10, 18]: 500 nM; EC50 [10, 19]: 180 nM; cell death by Annexin V staining [11]: induced cell death; clearance relative to previously published reports [12]: around 2 fold; tolerability [13]: well tolerated; median survival [14]: 28 days; EC50 [15]: 160 nM"
CC[C@]1(O)C[C@H]2CN(CCc3c([nH]c4ccccc34)[C@@](C(=O)OC)(c3cc4c(cc3OC)N(C=O)[C@H]3[C@@](O)(C(=O)OC)[C@H](OC(C)=O)[C@]5(CC)C=CCN6CC[C@]43[C@@H]65)C2)C1 [Vincristine],,9.4,10,toxicity in mice [13]: intolerable toxicity
"Cc1c2oc3c(C)ccc(C(=O)N[C@@H]4C(=O)N[C@H](C(C)C)C(=O)N5CCC[C@H]5C(=O)N(C)CC(=O)N(C)[C@@H](C(C)C)C(=O)O[C@@H]4C)c3nc-2c(C(=O)N[C@@H]2C(=O)N[C@H](C(C)C)C(=O)N3CCC[C@H]3C(=O)N(C)CC(=O)N(C)[C@@H](C(C)C)C(=O)O[C@@H]2C)c(N)c1=O [Dactinomycin] (I: T[dV]P[Sar][NMeV] / II: T[dV]P[Sar][NMeV]; ester I:1-I:C, II:1-II:C; linker I:N-II:N via Actinocin(9to1))",8.4,0.9,2.4,
CC(C)c1nc(N(C)S(C)(=O)=O)nc(-c2ccc(F)cc2)c1/C=C/[C@@H](O)C[C@@H](O)CC(=O)O [Rosuvastatin],,2600,,
CC1(C)N=C(N)N=C(N)N1c1ccc(Cl)cc1 [Cycloguanil],,110,180,
CN(Cc1cnc2nc(N)nc(N)c2n1)c1ccc(C(=O)N[C@@H](CCC(=O)O)C(=O)O)cc1 [Methotrexate],,5.2,150,
